Reference: paper PMC6222718, “Ethylenediamine Derived Carboxamides of Betulinic and Ursolic Acid as Potential Cytotoxic Agents” (Molecules : A Journal of Synthetic Chemistry and Natural …, 2018)
Counter-ions that a name gives are not always drawn.

Tests used:
[1] = test system: A2780 (ovarian carcinoma); test: SRB cytotoxicity assay, A2780; type: cell-based, human; conditions: for EC50: Homo sapiens, SRB assay, 96 h of treatment, A2780; for Selectivity index (SI) A2780: SI = EC50 (NIH 3T3)/EC50 (A2780)
Procedure: (§1) The cytotoxicity of ursolic and betulinic carboxamides 3–30 was determined in sulforhodamine B (SRB) assays.
(§2) The cell lines used were human cancer cell lines: 518A2 (melanoma), A2780 (ovarian carcinoma), HT29 (colon adenocarcinoma), MCF-7 (breast adenocarcinoma), 8505C (thyroid carcinoma) and non-malignant mouse fibroblasts NIH 3T3. Cultures were maintained as monolayers in RPMI 1640 medium with L-glutamine (Capricorn Scientific GmbH, Ebsdorfergrund, Germany) supplemented with 10% heat inactivated fetal bovineserum (Sigma-Aldrich Chemie GmbH, Steinheim, Germany) and penicillin/streptomycin (Capricorn Scientific GmbH, Ebsdorfergrund, Germany) at 37 °C in a humidified atmosphere with 5% CO2.
(§3) The cytotoxicity of the compounds was evaluated using the sulforhodamine-B (Kiton-Red S, ABCR) micro culture colorimetric assay. Cells were seeded into 96-well plates on day 0 at appropriate cell densities to prevent confluence of the cells during the period of experiment. After 24 h, the cells were treated with 6 different concentrations (1, 3, 7, 12, 20 and 30 µM) minimum. The final concentration of DMSO/DMF never exceeded 0.5%, which was non-toxic to the cells. After a 96 h treatment, the supernatant medium from the 96-well plates was discarded, the cells were fixed with 10% trichloroacetic acid (TCA) and allowed to rest at 4 °C. After 24 h fixation, the cells were washed in a strip washer and dyed with SRB solution (100 µL, 0.4% in 1% acetic acid) for about 20 min. After dying, the plates were washed four times with 1% acetic acid to remove the excess of the dye and allowed to air-dry overnight. Tris base solution (200 µL, 10 mM) was added to each well and absorbance was measured at λ = 570 nm using a 96-well plate reader (Tecan Spectra, Crailsheim, Germany). The EC50 values were averaged from three independent experiments performed each in triplicate calculated from semi logarithmic dose response curves applying a non-linear 4P Hills-slope equation (GraphPad Prism5; variables top and bottom were set to 100 and 0, respectively).

[2] = test system: non-malignant mouse fibroblasts NIH 3T3; test: SRB cytotoxicity assay, NIH 3T3; type: cell-based; conditions: NIH3T3, 96 h of treatment
Procedure: as §1, §2, §3

[3] = test system: MCF-7 (breast adenocarcinoma); test: SRB cytotoxicity assay, MCF-7; type: cell-based, human; conditions: for EC50: Homo sapiens, MCF7, SRB assay, 96 h of treatment, MCF-7; for Selectivity index (SI) MCF-7: SI = EC50 (NIH 3T3)/EC50 (MCF-7)
Procedure: as §1, §2, §3

[4] = test system: 518A2 (melanoma); test: SRB cytotoxicity assay, 518A2; type: cell-based, human; conditions: for EC50: Homo sapiens, SRB assay, 96 h of treatment, 518A2; for Selectivity index (SI) 518A2: SI = EC50 (NIH 3T3)/EC50 (518A2)
Procedure: as §1, §2, §3

[5] = test system: HT29 (colon adenocarcinoma); test: SRB cytotoxicity assay, HT29; type: cell-based, human; conditions: for EC50: Homo sapiens, HT-29, SRB assay, 96 h of treatment, HT29; for Selectivity index (SI) HT29: SI = EC50 (NIH 3T3)/EC50 (HT29)
Procedure: as §1, §2, §3

[6] = test system: 8505C (thyroid carcinoma); test: SRB cytotoxicity assay, 8505C; type: cell-based, human; conditions: for EC50: Homo sapiens, SRB assay, 96 h of treatment, 8505C; for Selectivity index (SI) 8505C: SI = EC50 (NIH 3T3)/EC50 (8505C)
Procedure: as §1, §2, §3

melting point [°C] | Compound | EC50 [1] [nM] | Selectivity index (SI) A2780 [1] | EC50 [2] [nM] | EC50 [3] [nM] | Selectivity index (SI) MCF-7 [3] | EC50 [4] [nM] | Selectivity index (SI) 518A2 [4] | EC50 [5] [nM] | Selectivity index (SI) HT29 [5] | EC50 [6] [nM] | Selectivity index (SI) 8505C [6]
– | C=C(C)[C@@H]1CC[C@]2(C(=O)O)CC[C@]3(C)[C@H](CC[C@@H]4[C@@]5(C)CC[C@H](O)C(C)(C)[C@@H]5CC[C@]43C)[C@@H]12 [BA, betulinic acid, reference compound] | 8800 ± 900 | 1.49 | 13100 ± 1100 | 10200 ± 1200 | 1.28 | 9400 ± 700 | 1.39 | 14400 ± 2300 | 0.91 | – | –
202 to 205 | CC(=O)O[C@H]1CC[C@@]2(C)C(CC[C@]3(C)C2CC=C2C4[C@@H](C)[C@H](C)CC[C@]4(C(=O)NCCN)CC[C@]23C)C1(C)C (stereo partly drawn) [Compound 3, (3β)-N-(2-Aminoethyl)-3-acetyloxy-urs-12-en-28-amide] | 2300 ± 100 | 1.13 | 2600 ± 300 | 2000 ± 100 | 1.30 | 2700 ± 100 | 0.96 | 1800 ± 100 | 1.44 | 4100 ± 400 | 0.63
121 to 124 | CC(=O)O[C@H]1CC[C@@]2(C)C(CC[C@]3(C)C2CC=C2C4[C@@H](C)[C@H](C)CC[C@]4(C(=O)NCCN(C)C)CC[C@]23C)C1(C)C (stereo partly drawn) [Compound 4, (3β)-N-[2-(Dimethylamino)ethyl]-3-acetyloxy-urs-12-en-28-amide] | 3600 ± 400 | 1.03 | 3700 ± 200 | 3300 ± 700 | 1.12 | 5300 ± 400 | 0.70 | 3400 ± 300 | 1.09 | 8300 ± 700 | 0.45
156 to 159 | CC(=O)O[C@H]1CC[C@@]2(C)C(CC[C@]3(C)C2CC=C2C4[C@@H](C)[C@H](C)CC[C@]4(C(=O)NCCN4CCCC4)CC[C@]23C)C1(C)C (stereo partly drawn) [Compound 5, (3β)-N-(2-Pyrrolidin-1-ylethyl)-3-acetyloxy-urs-12-en-28-amide] | 3100 ± 200 | 1.06 | 3300 ± 300 | 2900 ± 700 | 1.14 | 4500 ± 200 | 0.73 | 2100 ± 200 | 1.57 | 4300 ± 200 | 0.77
124 to 127 | CC(=O)O[C@H]1CC[C@@]2(C)C(CC[C@]3(C)C2CC=C2C4[C@@H](C)[C@H](C)CC[C@]4(C(=O)NCCN4CCCCC4)CC[C@]23C)C1(C)C (stereo partly drawn) [Compound 6, (3β)-N-(2-Piperidin-1-ylethyl)-3-acetyloxy-urs-12-en-28-amide] | 6500 ± 500 | 1.11 | 7200 ± 1200 | 6000 ± 900 | 1.20 | 12200 ± 300 | 0.59 | 4200 ± 500 | 1.71 | 15500 ± 2700 | 0.46
145 to 147 | CC(=O)O[C@H]1CC[C@@]2(C)C(CC[C@]3(C)C2CC=C2C4[C@@H](C)[C@H](C)CC[C@]4(C(=O)NCCN4CCNCC4)CC[C@]23C)C1(C)C (stereo partly drawn) [Compound 7, (3β)-N-(2-Piperazin-1-ylethyl)-3-acetyloxy-urs-12-en-28-amide] | 2400 ± 100 | 0.92 | 2200 ± 100 | 2700 ± 300 | 0.81 | 3200 ± 100 | 0.69 | 1800 ± 200 | 1.22 | 5400 ± 400 | 0.41
117 to 120 | CC(=O)O[C@H]1CC[C@@]2(C)C(CC[C@]3(C)C2CC=C2C4[C@@H](C)[C@H](C)CC[C@]4(C(=O)NCCCCN)CC[C@]23C)C1(C)C (stereo partly drawn) [Compound 8, (3β)-N-(4-Aminobutyl)-3-acetyloxy-urs-12-en-28-amide] | 2600 ± 100 | 0.50 | 1300 ± 200 | 1700 ± 100 | 0.76 | 2700 ± 100 | 0.48 | 1700 ± 100 | 0.76 | 3200 ± 10 | 0.41
– | C=C(C)C1CC[C@]2(C(=O)NCCN)CC[C@]3(C)C(CCC4[C@@]5(C)CC[C@H](OC(C)=O)C(C)(C)C5CC[C@]43C)C12 (stereo partly drawn) [Compound 17, (3β)-N-(2-Aminoethyl)-3-acetyloxy-lup-20(29)-en-28-amide] | 1400 ± 200 | 1.00 | 1400 ± 100 | 1300 ± 60 | 1.08 | 1600 ± 100 | 0.88 | 1000 ± 300 | 1.40 | 2500 ± 30 | 0.56
– | C=C(C)C1CC[C@]2(C(=O)NCCN)CC[C@]3(C)C(CCC4[C@@]5(C)CC[C@H](O)C(C)(C)C5CC[C@]43C)C12 (stereo partly drawn) [Compound 24, (3β)-N-(2-Aminoethyl)-3-hydroxy-lup-20(29)-en-28-amide] | 400 ± 30 | 1.00 | 400 ± 20 | 400 ± 20 | 1.00 | 400 ± 10 | 1.00 | 400 ± 20 | 1.00 | 400 ± 70 | 1.00
– | C=C(C)C1CC[C@]2(C(=O)NCCN3CCCCC3)CC[C@]3(C)C(CCC4[C@@]5(C)CC[C@H](O)C(C)(C)C5CC[C@]43C)C12 (stereo partly drawn) [Compound 27, (3β)-N-(2-Piperidin-1-ylethyl)-3-hydroxy-lup-20(29)-en-28-amide] | 400 ± 100 | 1.00 | 400 ± 10 | 400 ± 10 | 1.00 | 500 ± 100 | 0.80 | 400 ± 30 | 1.00 | 800 ± 90 | 0.50
– | COc1cccc2c1C(=O)c1c(O)c3c(c(O)c1C2=O)C[C@@](O)(C(=O)CO)C[C@@H]3O[C@H]1C[C@H](N)[C@H](O)[C@H](C)O1 [DRC, doxorubicin hydrochloride, reference compound] | 10 ± 10 | 6.00 | 60 ± 30 | 1100 ± 300 | 0.05 | 200 ± 50 | 0.30 | 900 ± 200 | 0.07 | 1100 ± 400 | 0.05
– | C[C@H]1[C@H](C)CC[C@]2(C(=O)O)CC[C@]3(C)C(=CC[C@@H]4[C@@]5(C)CC[C@H](O)C(C)(C)[C@@H]5CC[C@]43C)[C@H]12 [UA, ursolic acid] | 11700 ± 600 | 1.59 | 18700 ± 1600 | 12700 ± 100 | 1.47 | 14700 ± 100 | 1.27 | 10600 ± 700 | 1.76 | 13500 ± 1500 | 1.39
